Laboratory results taken from patent publication US8623860B2, “Azetidine derivatives, pharmaceutical compositions and uses thereof” (Boehringer Ingelheim International GmbH, priority 2011, dated 2014).

Target: human ACC2 (Homo sapiens (Human), UniProt O00763)
Assay: ACC2 assay, spectrophotometric 384 well assay (NADH-linked, coupled lactate dehydrogenase/pyruvate kinase reaction)
Type: biochemical
Conditions: hACC2 construct lacking the 128 N-terminal amino acids; 25° C., 340 nm, 15 minutes
Description: Spectrophotometric 384 Well Assay
Malonyl CoA formation by acetyl CoA carboxylases is stoichometrically linked to the consumption of ATP. ACC2 activity is measured in a NADH-linked kinetic method measuring ADP generated during the ACC reaction using a coupled lactate dehydrogenase/pyruvate kinase reaction.
For biological testing, a human ACC2 construct which lacks the 128 amino acids at the N-terminus for increased solubility (nt 385-6966 in Genbank entry AJ575592) is cloned. The protein is then expressed in insect cells using a baculoviral expression system. Protein purification is performed by anion exchange.
All compounds are dissolved in dimethyl sulfoxide (DMSO) to a concentration of 10 mM.
Assay reactions are then carried out in 384-well plates, with hACC2 in an appropriate dilution and at final assay concentrations (f.c.) of 100 mM Tris (pH 7.5), 10 mM trisodium citrate, 25 mM KHCC3, 10 mM MgCl2, 0.5 mg/ml BSA, 3.75 mM reduced L-glutathione, 15 U/ml lactate dehydrogenase, 0.5 mM phosphoenolpyruvate, 15 U/ml pyruvate kinase, compounds at different concentrations at final DMSO concentrations of 1%.
The enzymatic reaction is then started by addition of a mixture of NADH, acetyl Coenzyme A (both 200 μM f.c.) and ATP (500 uM f.c.). The decrease of the optical density (slope S) is then determined at 25° C. at a wavelength of 340 nm over 15 minutes in a spectrophotometric reader.
Each assay microtiter plate contains wells with vehicle instead of compound as controls for the non-inhibited enzyme (100% CTL; ‘HIGH’) and wells without acetyl-CoA as controls for non-specific NADH degradation (0% CTL; ‘LOW’).
The slope S is used for calculation of % CTL=(S(compound)−S(‘LOW’))/(S(‘HIGH’)−S(‘LOW’))*100. Compounds will give values between 100% CTL (no inhibition) and 0% CTL (complete inhibition).
For IC50 value determination, the sample slope in the presence of the test compound after subtraction of the low controls (S(compound)−S(‘LOW’)) are used.
An IC50 value is derived from the compound slopes at different dosages after subtraction of the low controls (S(compound)−S(‘LOW’)) by non-linear regression curve fitting (equation y=(A+((B−A)/(1+((C/x)^D))))).
In the following table the activity expressed as IC50 (μM) of compounds according to the invention is presented wherein the IC50 values are determined in the ACC2 assay as described hereinbefore. The term “Ex.” refers to the example numbers according to the following experimental section.

Chain of human ACC2 (O00763 129-2458): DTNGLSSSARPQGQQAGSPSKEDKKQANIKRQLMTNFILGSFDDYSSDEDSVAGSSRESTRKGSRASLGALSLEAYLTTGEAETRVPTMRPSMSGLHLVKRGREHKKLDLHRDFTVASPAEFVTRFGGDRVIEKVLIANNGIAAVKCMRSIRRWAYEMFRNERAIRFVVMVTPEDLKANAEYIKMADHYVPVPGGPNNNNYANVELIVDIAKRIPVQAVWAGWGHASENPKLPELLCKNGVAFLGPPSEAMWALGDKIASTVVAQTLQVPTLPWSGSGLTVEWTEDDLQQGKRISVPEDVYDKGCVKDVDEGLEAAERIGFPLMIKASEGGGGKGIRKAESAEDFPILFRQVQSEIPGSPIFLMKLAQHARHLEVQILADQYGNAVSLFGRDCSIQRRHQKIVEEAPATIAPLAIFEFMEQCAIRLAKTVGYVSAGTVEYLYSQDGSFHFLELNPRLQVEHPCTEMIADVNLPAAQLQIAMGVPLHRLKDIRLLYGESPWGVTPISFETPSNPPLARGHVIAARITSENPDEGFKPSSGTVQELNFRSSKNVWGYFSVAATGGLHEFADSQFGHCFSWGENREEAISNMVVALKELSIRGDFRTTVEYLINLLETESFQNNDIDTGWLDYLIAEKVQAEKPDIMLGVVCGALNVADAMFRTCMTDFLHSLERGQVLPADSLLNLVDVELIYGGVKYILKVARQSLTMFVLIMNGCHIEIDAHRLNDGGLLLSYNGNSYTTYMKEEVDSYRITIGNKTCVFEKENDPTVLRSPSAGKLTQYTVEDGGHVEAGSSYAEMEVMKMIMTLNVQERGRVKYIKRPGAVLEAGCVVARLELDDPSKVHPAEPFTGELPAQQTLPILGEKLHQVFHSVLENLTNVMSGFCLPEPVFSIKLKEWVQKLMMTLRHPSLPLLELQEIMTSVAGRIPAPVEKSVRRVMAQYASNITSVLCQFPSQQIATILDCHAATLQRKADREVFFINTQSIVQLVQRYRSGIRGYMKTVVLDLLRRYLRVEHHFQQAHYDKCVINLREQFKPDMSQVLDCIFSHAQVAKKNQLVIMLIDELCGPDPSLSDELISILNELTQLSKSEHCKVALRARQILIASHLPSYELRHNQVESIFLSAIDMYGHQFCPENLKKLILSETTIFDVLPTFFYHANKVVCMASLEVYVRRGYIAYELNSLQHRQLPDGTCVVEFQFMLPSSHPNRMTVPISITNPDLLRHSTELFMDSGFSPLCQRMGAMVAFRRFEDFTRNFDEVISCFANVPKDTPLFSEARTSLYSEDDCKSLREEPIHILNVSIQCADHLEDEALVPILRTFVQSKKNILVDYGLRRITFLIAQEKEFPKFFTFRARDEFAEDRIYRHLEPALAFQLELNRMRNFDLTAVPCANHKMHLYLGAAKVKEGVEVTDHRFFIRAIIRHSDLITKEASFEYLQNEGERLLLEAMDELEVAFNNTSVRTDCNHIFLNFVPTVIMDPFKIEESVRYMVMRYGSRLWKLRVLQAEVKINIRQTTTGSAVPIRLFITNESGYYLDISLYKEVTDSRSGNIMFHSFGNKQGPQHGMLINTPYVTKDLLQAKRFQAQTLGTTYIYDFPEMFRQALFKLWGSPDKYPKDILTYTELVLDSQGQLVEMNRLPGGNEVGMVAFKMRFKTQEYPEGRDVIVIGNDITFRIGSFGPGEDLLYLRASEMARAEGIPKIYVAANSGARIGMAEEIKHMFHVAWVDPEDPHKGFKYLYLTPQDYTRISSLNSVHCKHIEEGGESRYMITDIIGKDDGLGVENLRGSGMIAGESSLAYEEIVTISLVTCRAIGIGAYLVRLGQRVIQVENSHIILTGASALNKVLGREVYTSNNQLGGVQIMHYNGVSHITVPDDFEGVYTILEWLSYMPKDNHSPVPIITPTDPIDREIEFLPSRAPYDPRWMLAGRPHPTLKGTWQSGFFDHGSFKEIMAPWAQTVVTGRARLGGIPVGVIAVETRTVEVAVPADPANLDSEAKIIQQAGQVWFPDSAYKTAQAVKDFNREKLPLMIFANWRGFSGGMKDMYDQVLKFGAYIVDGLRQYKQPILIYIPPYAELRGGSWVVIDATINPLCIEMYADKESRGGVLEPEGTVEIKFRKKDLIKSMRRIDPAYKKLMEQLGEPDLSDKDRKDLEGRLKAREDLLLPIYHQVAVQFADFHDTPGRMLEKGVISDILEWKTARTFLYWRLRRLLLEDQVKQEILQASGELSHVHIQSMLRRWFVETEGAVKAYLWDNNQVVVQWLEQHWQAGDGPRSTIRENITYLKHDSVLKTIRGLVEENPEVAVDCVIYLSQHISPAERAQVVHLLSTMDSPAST

SMILES	IC50
CC(=O)NC(C)CCc1ccc(C2CN(c3ncc(C4CC4)cn3)C2)cc1 (stereo not drawn) [Example 2.04]	2560 nM
CC(=O)NC(C)Cc1ccc(C2CN(c3ncc(Br)cn3)C2)cc1 (stereo not drawn) [Example 2.01, N-(1-(4-(1-(5-bromopyrimidin-2-yl)azetidin-3-yl)phenyl)propan-2-yl)acetamide]	8560 nM
CCC(=O)NC(C)Cc1ccc(C2CN(c3ccc(OCC4CC4)cc3)C2)cc1 (stereo not drawn) [Example 3.10]	890 nM
CC(=O)NC(C)Cc1ccc(C2CN(c3cnc(OC4CCC4)nc3)C2)cc1 (stereo not drawn) [Example 1.06]	3810 nM
CC(=O)N[C@@H](C)c1ccc(C2CN(c3ccc(C(F)(F)F)cn3)C2)cc1 [Example 2.09]	450 nM
CC(=O)Nc1nc(C)c(C(=O)NC(C)Cc2ccc(C3CN(c4ccc(OCC5CC5)cc4)C3)cc2)s1 (stereo not drawn) [Example 3.15]	1050 nM
CC(=O)N[C@@H](C)c1ccc(C2CN(c3ccc(OCCCF)cn3)C2)cc1 [Example 1.34]	830 nM
C=CCC(=O)NC(C)Cc1ccc(C2CN(c3ccc(OCC4CC4)cc3)C2)cc1 (stereo not drawn) [Example 3.06]	1070 nM
CC(=O)NC(C)c1ccc(C2CN(c3ccc4c(c3)OCCO4)C2)cc1 (stereo not drawn) [Example 1.20]	490 nM
CC(=O)NC(C)CCc1ccc(C2CN(c3ccc(OCC4CC4)cc3)C2)cc1 (stereo not drawn) [Example 1.17]	190 nM
CC(Cc1ccc(C2CN(c3ccc(OCC4CC4)cc3)C2)cc1)NC(=O)C(C)F (stereo not drawn) [Example 3.09]	2510 nM
CCCOc1ccc(N2CC(c3ccc([C@H](C)NC(C)=O)cc3)C2)cc1 [Example 1.26]	510 nM
CC(Cc1ccc(C2CN(c3ccc(OCC4CC4)cc3)C2)cc1)NC(=O)C(C)(F)F (stereo not drawn) [Example 3.11]	1450 nM
CC(=O)Nc1cncc(C(=O)NC(C)Cc2ccc(C3CN(c4ccc(OCC5CC5)cc4)C3)cc2)c1 (stereo not drawn) [Example 3.05]	1730 nM
CC(=O)NC(C)CCc1ccc(C2CN(c3cccc(C(F)(F)F)n3)C2)cc1 (stereo not drawn) [Example 2.06]	1420 nM
CC(=O)N[C@@H](C)c1ccc(C2CN(c3ccc(OCC4CC4(F)F)cn3)C2)cc1 (stereo partly drawn) [Example 1.31]	600 nM
CC(=O)Nc1nc(C)c(C(=O)N[C@@H](C)c2ccc(C3CN(c4ccc(OCC5CC5)cc4)C3)cc2)s1 [Example 3.04]	250 nM

Second part, the compound after the results:

IC50	SMILES
3010 nM	C[C@H](NC(=O)c1ccnnc1)c1ccc(C2CN(c3ccc(OCC4CC4)cc3)C2)cc1 [Example 3.58]
3050 nM	COCC(=O)NC(C)Cc1ccc(C2CN(c3ccc(OCC4CC4)cc3)C2)cc1 (stereo not drawn) [Example 3.16]
1220 nM	CC(Cc1ccc(C2CN(c3ccc(OCC4CC4)cc3)C2)cc1)NC(=O)C1(C)CC1 (stereo not drawn) [Example 3.63]
2730 nM	C[C@H](NC(=O)C1CNC(=O)C1)c1ccc(C2CN(c3ccc(OCC4CC4)cc3)C2)cc1 (stereo partly drawn) [Example 3.34]
2960 nM	C[C@H](NC(=O)Cc1cc[nH]c1)c1ccc(C2CN(c3ccc(OCC4CC4)cc3)C2)cc1 [Example 3.21]
1170 nM	C[C@H](NC(=O)C1CC(F)C1)c1ccc(C2CN(c3ccc(OCC4CC4)cc3)C2)cc1 (stereo partly drawn) [Example 3.37]
3080 nM	C[C@H](NC(=O)C(C)(C)O)c1ccc(C2CN(c3ccc(OCC4CC4)cc3)C2)cc1 [Example 3.75]
1690 nM	CC(=O)Nc1ncc(C(=O)N[C@@H](C)c2ccc(C3CN(c4ccc(OCC5CC5)cc4)C3)cc2)s1 [Example 3.49]
2440 nM	C[C@H](NC(=O)CCO)c1ccc(C2CN(c3ccc(OCC4CC4)cc3)C2)cc1 [Example 3.80]
1100 nM	C[C@H](NC(=O)Cc1cncnc1)c1ccc(C2CN(c3ccc(OCC4CC4)cc3)C2)cc1 [Example 3.48]
360 nM	C[C@H](NC(=O)C(F)F)c1ccc(C2CN(c3ccc(OCC4CC4)cc3)C2)cc1 [Example 3.85]
1130 nM	C[C@H](NC(=O)c1cnco1)c1ccc(C2CN(c3ccc4c(c3)OCCO4)C2)cc1 [Example 3.44]
1450 nM	CC(=O)N[C@@H](C)c1ccc(C2CN(c3ccnc(OCC4CC4(F)F)c3F)C2)cc1 (stereo partly drawn) [Example 5.1, N-((1S)-1-(4-(1-(2-((2,2-difluorocyclopropyl)methoxy)-3-fluoropyridin-4-yl)azetidin-3-yl)phenyl)ethyl)acetamide]
1170 nM	Cc1cc(CC(=O)N[C@@H](C)c2ccc(C3CN(c4ccc(OCC5CC5)cc4)C3)cc2)on1 [Example 3.60]
2460 nM	C[C@H](NC(=O)C1CC1)c1ccc(C2CN(c3ccc4c(c3)OCCO4)C2)cc1 [Example 3.64]
1150 nM	C[C@H](NC(=O)C(C)(C)F)c1ccc(C2CN(c3ccc(OCC4CC4)cc3)C2)cc1 [Example 3.46]
1010 nM	CC(=O)N[C@@H](C)c1ccc(C2CN(c3nc(N(C)CC(F)F)ncc3F)C2)cc1 [Example 4.2]
1650 nM	C[C@H](NC(=O)c1cncs1)c1ccc(C2CN(c3ccc4c(c3)OCCO4)C2)cc1 [Example 3.57]
2060 nM	COCCC(=O)N[C@@H](C)c1ccc(C2CN(c3ccc(OCC4CC4)cc3)C2)cc1 [Example 3.30]
